Experimental data reported in patent US7960381B2, “Substituted gamma lactams as therapeutic agents” (Allergan, Inc., priority 2007, dated 2011).

Test system: normotensive dogs
Test: Ocular surface hyperemia in normotensive dogs
Type: in vivo
Details: once daily for 5 days
Description: U.S. Pat. No. 7,091,231 describes the methods used for these in vivo tests.
5-(3-{(S)-1-[4-(1-Hydroxyhexyl)-phenyl]-5-oxo-pyrrolidin-2-yl}-propyl)-thiophene-2-carboxylic acid 2-hydroxyethyl ester (1) was tested in normotensive dogs at 0.003%, dosing once daily for 5 days. The maximum intraocular pressure (IOP) decrease from baseline was 4.4 mmHg (32%) at 30 h; the maximum ocular surface hyperemia (OSH) score was 0.9 at 30 h. This compound was also tested in laser-induced hypertensive monkeys, using one single day dose. At 0.003%, the maximum IOP decrease from baseline was 13.4 mmHg (38%) at 24 h. Compound 1 was also tested in normotensive dogs at 0.001%, dosing once daily for 5 days. The maximum intraocular pressure (IOP) decrease from baseline was 3.75 mmHg (23%) at 76 h; the maximum ocular surface hyperemia (OSH) score was 1.1 at 74 h. Compound 1 was also tested in laser-induced hypertensive monkeys, using one single day dose. At 0.001%, the maximum IOP decrease from baseline was 12.7 mmHg (31%) at 24 h.
5-(3-{(S)-1-[4-(1-Hydroxyhexyl)-phenyl]-5-oxo-pyrrolidin-2-yl}-propyl)-thiophene-2-carboxylic acid 2-morpholin-4-yl-ethyl ester (2) was tested in normotensive dogs at 0.003%, dosing once daily for 5 days. The maximum intraocular pressure (IOP) decrease from baseline was 5.9 mmHg (36%) at 52 h; the maximum ocular surface hyperemia (OSH) score was 1.1 at 50 h. This compound was also tested in laser-induced hypertensive monkeys, using one single day dose. At 0.003%, the maximum IOP decrease from baseline was 20 mmHg (53%) at 24 h.

[1] = 0.003%, maximum at 30 h (1), 50 h (2)

| Compound | maximum ocular surface hyperemia (OSH) score (0.001%, maximum at 74 h) | maximum ocular surface hyperemia (OSH) score [1] |
| --- | --- | --- |
| CCCCCC(O)c1ccc(N2C(=O)CC[C@@H]2CCCc2ccc(C(=O)OCCO)s2)cc1 (single isomer, unassigned) [Compound 1] | 1.1 | 0.9 |
| CCCCCC(O)c1ccc(N2C(=O)CC[C@@H]2CCCc2ccc(C(=O)OCCN3CCOCC3)s2)cc1 (single isomer, unassigned) [Compound 2] |  | 1.1 |
